Laboratory results: ChEMBL document CHEMBL3808319, “Development of novel cyclic peptides as pro-apoptotic agents” (Eur J Med Chem, 2016)
Activity calls are given as the source filed them. The calls are words filed in the database; no cut-off is given here. *1 amine or outer side, *2 acyl side, *3 side chain or, on linkers, in order; H or OH if unused. Where a SMILES comes first, the peptide text is derived from it. [ ]: non-standard residue; d: D form. The star is where a group is joined. NH(CH2)2O(CH2)2NH2 = NCCOCCN*; ΔPro = O=C(O)[C@@H]1C=CCN1; CO = O=C([*:1])[*:2]; Bn = c1ccc(C*)cc1; GABA = NCCCC(=O)O; βAla = NCCC(=O)O

Columns and labels:
[1] = system: HL-60; assay: Induction of apoptosis in human HL60 cells assessed as reduction in accumulation at G2/M phase after 24 hrs by propidium iodide staining based flow cytometric analysis; format: functional, cell-based
[2] = system: HL-60; assay: Induction of apoptosis in human HL60 cells assessed as accumulation at subG0/G1 phase at 50 uM after 24 hrs by Annexin V and propidium iodide staining based flow cytometric analysis (reference value: 3.14 +/- 0.9 %); format: functional
[3] = system: HL-60; assay: Induction of apoptosis in human HL60 cells assessed as loss of mitochondrial inner transmembrane potential at 50 uM after 24 hrs by TMRM dye based flow cytometric analysis; format: functional, cell-based
[4] = system: HL-60; assay: Induction of apoptosis in human HL60 cells assessed as reduction in accumulation at G0/G1 phase after 24 hrs by propidium iodide staining based flow cytometric analysis; format: functional, cell-based
[5] = system: HL-60; assay: Induction of apoptosis in human HL60 cells assessed as accumulation at subG0/G1 phase after 24 hrs by Annexin V and propidium iodide staining based flow cytometric analysis; format: functional, cell-based
[6] = target: T1, Tubulin (Sus scrofa) (UniProt P02554+P02550); assay: Induction of pig tubulin polymerization at 10 uM after 60 mins by spectroscopic analysis; format: protein assay
T1 sequence (P02550 whole entry, looked up): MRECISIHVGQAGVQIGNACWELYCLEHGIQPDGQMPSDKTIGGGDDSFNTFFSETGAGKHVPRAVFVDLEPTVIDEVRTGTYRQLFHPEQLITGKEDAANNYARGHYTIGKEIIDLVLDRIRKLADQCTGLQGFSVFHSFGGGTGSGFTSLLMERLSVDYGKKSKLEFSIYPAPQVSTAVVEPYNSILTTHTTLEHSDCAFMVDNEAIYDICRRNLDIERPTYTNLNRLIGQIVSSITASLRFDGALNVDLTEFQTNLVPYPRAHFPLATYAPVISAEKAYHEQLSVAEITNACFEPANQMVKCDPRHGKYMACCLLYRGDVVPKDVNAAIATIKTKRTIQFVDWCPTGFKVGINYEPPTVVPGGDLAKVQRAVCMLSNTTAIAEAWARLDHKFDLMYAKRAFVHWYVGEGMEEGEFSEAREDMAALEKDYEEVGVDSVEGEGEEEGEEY
T1 sequence (P02554 whole entry, looked up): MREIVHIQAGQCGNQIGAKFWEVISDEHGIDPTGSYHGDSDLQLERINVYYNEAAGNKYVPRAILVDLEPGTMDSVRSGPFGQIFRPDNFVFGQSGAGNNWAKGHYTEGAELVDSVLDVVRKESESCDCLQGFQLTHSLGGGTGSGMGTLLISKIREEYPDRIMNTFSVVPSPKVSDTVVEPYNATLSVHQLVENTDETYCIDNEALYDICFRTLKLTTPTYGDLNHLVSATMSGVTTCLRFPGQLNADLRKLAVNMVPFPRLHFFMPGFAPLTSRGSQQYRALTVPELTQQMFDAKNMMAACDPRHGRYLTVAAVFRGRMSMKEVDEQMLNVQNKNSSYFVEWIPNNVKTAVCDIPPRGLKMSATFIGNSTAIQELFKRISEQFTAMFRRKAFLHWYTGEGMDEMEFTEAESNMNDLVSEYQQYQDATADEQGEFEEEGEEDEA

[7] = system: MCF7; assay: Induction of apoptosis in human MCF7 cells assessed as accumulation at subG0/G1 phase at 50 uM after 48 hrs by Annexin V and propidium iodide staining based flow cytometric analysis (reference value: 8.5 +/- 2.4 %); format: functional
[8] = system: RBL-2H3; assay: Induction of tubulin polymerization in rat RBL2H3 cells assessed as induction of alteration of microtubule network at 50 uM preincubated for 16 hrs measured after 24 hrs by confocal laser scanning microscopic analysis; format: cell-based
[9] = system: B16-F1; assay: Induction of apoptosis in mouse B16-F1 cells assessed as accumulation at subG0/G1 phase at 50 uM after 24 hrs Annexin V and propidium iodide staining based flow cytometric analysis (reference value: 1.9 +/- 1.6 %); format: functional
[10] = system: Jurkat; assay: Induction of apoptosis in human Jurkat cells assessed as accumulation at subG0/G1 phase at 25 uM after 24 hrs by Annexin V and propidium iodide staining based flow cytometric analysis (reference value: 3.9 %); format: functional
[11] = system: B16-F10; assay: Induction of apoptosis in mouse B16F10 cells assessed as accumulation at subG0/G1 phase at 50 uM after 24 hrs by Annexin V and propidium iodide staining based flow cytometric analysis (reference value: 3.7 +/- 3 %); format: functional
[12] = system: A-375; assay: Induction of apoptosis in human A375 cells assessed as accumulation at subG0/G1 phase at 50 uM after 72 hrs by Annexin V and propidium iodide staining based flow cytometric analysis (reference value: 7 +/- 1 %); format: functional
[13] = system: HL-60; assay: Induction of apoptosis in human HL60 cells assessed as accumulation at subG0/G1 phase at 25 uM after 24 hrs by Annexin V and propidium iodide staining based flow cytometric analysis (reference value: 5 %); format: functional
[14] = Induction of apoptosis in human 501mel cells assessed as accumulation at subG0/G1 phase at 50 uM after 72 hrs by Annexin V and propidium iodide staining based flow cytometric analysis (reference value: 9 +/- 1.8%); format: functional
[15] = Induction of apoptosis in human EBV-B cells assessed as accumulation at subG0/G1 phase at 25 uM after 24 hrs by Annexin V and propidium iodide staining based flow cytometric analysis (reference value: 1.6 %); format: functional
[16] = target: T1, Tubulin (Sus scrofa); assay: Induction of pig tubulin polymerization at 100 uM after 60 mins by spectroscopic analysis; format: protein assay
[17] = system: A-375; assay: Induction of apoptosis in human A375 cells assessed as accumulation at subG0/G1 phase at 50 uM after 24 hrs by Annexin V and propidium iodide staining based flow cytometric analysis (reference value: 7 +/- 1 %); format: functional, cell-based
[18] = species: Homo sapiens; assay: Induction of apoptosis in human 501mel cells assessed as accumulation at subG0/G1 phase at 50 uM after 24 hrs by Annexin V and propidium iodide staining based flow cytometric analysis (reference value: 9 +/- 1.8 %); format: functional, cell-based
[19] = species: Homo sapiens; assay: Induction of apoptosis in human 501mel cells assessed as accumulation at subG0/G1 phase at 100 uM after 72 hrs by Annexin V and propidium iodide staining based flow cytometric analysis; format: functional, cell-based
[20] = system: HL-60; assay: Induction of apoptosis in human HL60 cells assessed as accumulation at subG0/G1 phase at 100 uM after 24 hrs by Annexin V and propidium iodide staining based flow cytometric analysis (reference value: 3.14 +/- 0.9 %); format: functional
[21] = system: A-375; assay: Induction of apoptosis in human A375 cells assessed as accumulation at subG0/G1 phase at 100 uM after 72 hrs by Annexin V and propidium iodide staining based flow cytometric analysis; format: functional, cell-based

**Q.** With `CC[C@H](C)[C@@H]1NC(=O)NCCOCCCNC(=O)[C@H](Cc2ccccc2)NC(=O)[C@H](Cc2ccc(OCc3ccccc3)cc2)NC(=O)[C@@H]2C=CCN2C(=O)[C@H](C(C)C)NC1=O` as the compound, how does the Activity [1] read?
**A.** Dose-dependent effect

**Q.** What about the Activity [2] of the same compound?
**A.** 77%

**Q.** What about the Activity [3] of the same compound?
**A.** Active

**Q.** And the Activity [4]?
**A.** Dose-dependent effect

**Q.** What about the Activity [5] of the same compound?
**A.** Dose-dependent effect

**Q.** With `CC[C@H](C)[C@@H]1NC(=O)NCCOCCNC(=O)[C@H](Cc2ccccc2)NC(=O)[C@H](Cc2ccc(O)cc2)NC(=O)[C@@H]2C=CCN2C(=O)[C@H](C(C)C)NC1=O` as the compound, how does the Activity [2] read?
**A.** 5%

**Q.** For `CC(=O)O[C@H]1C(=O)[C@@]2(C)[C@H]([C@H](OC(=O)c3ccccc3)[C@]3(O)C[C@H](OC(=O)[C@H](O)[C@@H](NC(=O)c4ccccc4)c4ccccc4)C(C)=C1C3(C)C)[C@]1(OC(C)=O)CO[C@@H]1C[C@@H]2O`, which Activity [6] is on record?
**A.** Active

**Q.** For `CC[C@H](C)[C@H](NC(=O)[C@@H]1CCCN1C(=O)[C@@H]1CCCN1C(C)=O)C(=O)N[C@H](C(=O)N1CCC[C@H]1C(=O)N[C@@H](Cc1ccc(O)cc1)C(=O)N[C@@H](Cc1ccccc1)C(=O)N(C)C)C(C)C` (Ac-PPIVPYF-NMe2), which Activity [2] is on record?
**A.** inactive

**Q.** For `CC[C@H](C)[C@H](NC(=O)[C@@H]1CCCN1C(=O)[C@@H]1CCCN1C(=O)CCCN)C(=O)N[C@H](C(=O)NCC(=O)N[C@@H](Cc1ccc(O)cc1)C(=O)N[C@@H](Cc1ccccc1)C(=O)O)C(C)C` (H-[GABA]PPIVGYF-OH), which Activity [2] is on record?
**A.** inactive

**Q.** Which Activity [2] does the source give for `CC[C@H](C)[C@H](NC(=O)[C@@H]1CCCN1C(=O)[C@@H]1CCCN1C(=O)CCCN)C(=O)N[C@H](C(=O)N1CCC[C@H]1C(=O)N[C@@H](Cc1ccc(O)cc1)C(=O)N[C@@H](Cc1ccccc1)C(=O)O)C(C)C` (H-[GABA]PPIVPYF-OH) here?
**A.** inactive

**Q.** For `CC[C@H](C)[C@H](NC(=O)[C@@H]1CCCN1C(=O)[C@@H]1CCCN1C(=O)CCCN)C(=O)N[C@H](C(=O)N1CC=C[C@H]1C(=O)N[C@@H](Cc1ccc(O)cc1)C(=O)N[C@@H](Cc1ccccc1)C(=O)O)C(C)C` (H-[GABA]PPIV[ΔPro]YF-OH), which Activity [2] is on record?
**A.** inactive

**Q.** For `CC[C@H](C)[C@H](NC(=O)[C@@H]1CCCN1C(=O)[C@@H]1CCCN1C(=O)CCN)C(=O)N[C@H](C(=O)NCC(=O)N[C@@H](Cc1ccc(O)cc1)C(=O)N[C@@H](Cc1ccccc1)C(=O)O)C(C)C` (H-[βAla]PPIVGYF-OH), which Activity [2] is on record?
**A.** inactive

**Q.** Which results are given for `CC[C@H](C)[C@@H]1NC(=O)[C@@H]2CCCN2C(=O)[C@@H]2CCCN2C(=O)CNC(=O)[C@H](Cc2ccccc2)NC(=O)[C@H](Cc2ccc(O)cc2)NC(=O)[C@@H]2CCCN2C(=O)[C@H](C(C)C)NC1=O` (cyclo(FGPPIVPY))?
**A.** Activity [1]: Dose-dependent effect; Activity [7]: 17.3%; Activity [2]: 42%; Activity [3]: Active; Activity [8]: Active; Activity [4]: Dose-dependent effect; Activity [5]: Dose-dependent effect

**Q.** With `CC[C@H](C)[C@@H]1NC(=O)[C@@H]2CCCN2C(=O)[C@@H]2CCCN2C(=O)CCCNC(=O)[C@H](Cc2ccccc2)NC(=O)[C@H](Cc2ccc(O)cc2)NC(=O)CNC(=O)[C@H](C(C)C)NC1=O` (cyclo(F[GABA]PPIVGY)) as the compound, how does the Activity [2] read?
**A.** 11%

**Q.** Which Activity [1] does the source give for `CC[C@H](C)[C@@H]1NC(=O)[C@@H]2CCCN2C(=O)[C@@H]2CCCN2C(=O)CCCNC(=O)[C@H](Cc2ccccc2)NC(=O)[C@H](Cc2ccc(O)cc2)NC(=O)[C@@H]2CCCN2C(=O)[C@H](C(C)C)NC1=O` (cyclo(F[GABA]PPIVPY)) here?
**A.** Dose-dependent effect

**Q.** What about the Activity [9] of the same compound?
**A.** 13.9%

**Q.** What about the Activity [10] of the same compound?
**A.** 12%

**Q.** What about the Activity [11] of the same compound?
**A.** 13.6%

**Q.** What about the Activity [7] of the same compound?
**A.** 11.8%

**Q.** And the Activity [12]?
**A.** 48%

**Q.** And the Activity [13]?
**A.** 17%

**Q.** What about the Activity [2] of the same compound?
**A.** 56.6%

**Q.** And the Activity [14]?
**A.** 17%

**Q.** What about the Activity [3] of the same compound?
**A.** Active

**Q.** And the Activity [8]?
**A.** Active

**Q.** What about the Activity [15] of the same compound?
**A.** 11.4%

**Q.** What about the Activity [4] of the same compound?
**A.** Dose-dependent effect

**Q.** What about the Activity [5] of the same compound?
**A.** Dose-dependent effect

**Q.** For `CC[C@H](C)[C@@H]1NC(=O)[C@@H]2CCCN2C(=O)[C@@H]2CCCN2C(=O)CCCNC(=O)[C@H](Cc2ccccc2)NC(=O)[C@H](Cc2ccc(O)cc2)NC(=O)[C@@H]2C=CCN2C(=O)[C@H](C(C)C)NC1=O` (cyclo(F[GABA]PPIV[ΔPro]Y)), which Activity [2] is on record?
**A.** 7%

**Q.** For `CC[C@H](C)[C@@H]1NC(=O)[C@@H]2CCCN2C(=O)[C@@H]2CCCN2C(=O)CCNC(=O)[C@H](Cc2ccccc2)NC(=O)[C@H](Cc2ccc(O)cc2)NC(=O)[C@@H]2CCCN2C(=O)[C@H](C(C)C)NC1=O` (cyclo(F[βAla]PPIVPY)), which Activity [1] is on record?
**A.** Dose-dependent effect

**Q.** What about the Activity [7] of the same compound?
**A.** 18.9%

**Q.** And the Activity [2]?
**A.** 33.1%

**Q.** What about the Activity [3] of the same compound?
**A.** Active

**Q.** What about the Activity [4] of the same compound?
**A.** Dose-dependent effect

**Q.** And the Activity [16]?
**A.** Active

**Q.** What about the Activity [5] of the same compound?
**A.** Dose-dependent effect

**Q.** Which Activity [2] does the source give for `CC[C@H](C)[C@H](NC(=O)NCCOCCN)C(=O)N[C@H](C(=O)N1CC=C[C@H]1C(=O)N[C@@H](Cc1ccc(OCc2ccccc2)cc1)C(=O)N[C@@H](Cc1ccccc1)C(=O)O)C(C)C` ({NH(CH2)2O(CH2)2NH2-CO}-IV[ΔPro]Y(Bn)F-OH) here?
**A.** inactive

**Q.** What does the source list for Ac-LVPPPPIVPYF-NH2?
**A.** Activity [9]: inactive; Activity [10]: 4%; Activity [11]: inactive; Activity [7]: inactive; Activity [13]: 7.7%; Activity [17]: inactive; Activity [2]: inactive; Activity [18]: inactive; Activity [19]: inactive; Activity [15]: 2.3%; Activity [20]: 6.5%; Activity [21]: inactive

**Q.** For Ac-LVPPPPIVPYF-OH, which Activity [2] is on record?
**A.** inactive

**Q.** What about the Activity [20] of the same compound?
**A.** 7.2%

**Q.** Which Activity [2] does the source give for Ac-PPIVPYF-OH here?
**A.** inactive

**Q.** For Ac-VPPPPI-NH2, which Activity [2] is on record?
**A.** inactive

**Q.** Which Activity [2] does the source give for H-GPPIVPYF-OH here?
**A.** inactive
